Patent publication US20250304914A1, “METHODS OF PRODUCING ENGINEERED IMMUNE CELLS” (Takeda Pharmaceutical Company Limited, priority 2022, published 2025)

Columns and labels:
Format in all cases: cell-based
NK92 cells = experiment: Introduction of mCherry gene into NK92 cells, flow cytometry
Method: NK92 cell culture medium: RPMI, L-Gln (+) (Thermo Fisher Scientific) was prepared by adding 20% FBS (Biosera Co., Ltd.). Dimethyl Sulfoxide (DMSO) (Wako Pure Chemical Industries, Ltd) was added to the respective media to obtain the designated levels and used. NK92 cells (ATCC) were diluted with NK92 cell culture medium so that they were 2.0×10^6 cells/mL or less, seeded under 6.07×10^5 cells/cm^2 on culture plates with or without DMSO for 2 days. After that, NK92 cells were cultured on retronectin (Takara Bio Co., Ltd.) and a retrovirus into which a mCherry gene had been introduced, and cultured for 2 days to introduce the mCherry gene into NK92 cells. mCherry positive NK92 cells were produced as described above. DMSO from 0.01% to 0.1% was added in the pre-cultre step before transduction during its production. After production, the rate of introduction of the mCherry-gene was measured by flow cytometry.

T cells [1] = experiment: Rate of introduction of the CAR gene into T cells by flow cytometry (CAR-T production); settings: for CAR-positive rate: 0.0037%, 0.011%
Method: (§1) CAR-T cell culture medium: 2.6% OpTmizer Expansion Basal Supplement (Thermo Fisher Scientific), 1% L-Glutamine (Thermo Fisher Scientific), and 1% Streptomycine, 2% CTS Immune Cell SR (Thermo Fisher Scientific) were added to OpTmizer CTS T-Cell Expansion basal medium (Thermo Fisher Scientific) to prepare a basal cell culture medium. To this was added 20 IU/mL or 40 IU/mL of MACS GMP IL-2 (Miltenyi Biotec). Dimethyl Sulfoxide (DMSO) (Wako Pure Chemical Industries, Ltd) was added to the respective media to obtain the designated levels and used. After Leukopak (Hemacare) was thawed, the cells were diluted in CAR-T cell culture medium to less than or equal to 2.0×10^6 cells/mL (pre-production raw material). Cell suspension: MACS GMP T-Cell TransACT (Miltenyi Biotec)=17.5:1 were seeded in culture bags and cultured in about 48 hours (cell activation step). The activated cells were diluted in culture medium using a LOVO Cell processing system (Fresenius Kabi) or a centrifuge, seeded under 6.07×10^5 cells/cm^2 in culture bags that had been previously coated with Retronectin® (Takara Bio Co., Ltd.) and a retrovirus into which a CAR gene or a CAR gene, a IL-7 gene, and a CCL19 gene had been introduced, and cultured until the next day (gene transfer process). Culture bottles (G-REX, Wilson Wolf) were seeded under 2.2×10^6 cells/cm^2 and cultured for 3-7 days to produce CAR-T cells (final products). The CAR gene used has the base sequence encoding the amino acid sequence shown in SEQ ID NO: 1, IL-7 gene used has the base sequence encoding the amino acid sequence shown in SEQ ID NO: 2, and CCL19 gene used has the base sequence encoding the amino acid sequence shown in SEQ ID NO: 3 (the same applies to the following SK-HEP-1 cells). See Table 1 for the afore mentieond sequences. CAR introduction rates into T cells were determined using CAR-targeting antigens on a BD FACSCanto II flow cytometer (BD Biosciences). The immunophenotype of T cells was measured using an anti-CD4 antibody (clone SK3, cat #344604, BioLegend), an anti-CD8 antibody (clone SK1, cat #344710, BioLegend), an anti-CCR7 antibody (clone G043H7, cat #353204, BioLegend), an anti-CD45RA antibody (clone L48, cat #337167, BD Biosciences), an anti-CD27 antibody (clone 0323, cat #302836, BioLegend), and an anti-CD95 antibody (clone DX2, cat #305612, BioLegend), and CCR7/CD45RA/CD27/CD95 positive cells in a CD4 positive or CD8 positive T cell population were used as stem cell memory T cells, and CCR7/CD45RA positive cells other than these were used as naive T cells.

SK-HEP-1 cells = experiment: Introduction of CAR gene into SK-HEP-1 cells, flow cytometry; settings: Example 8, 0.1% DMSO in transduction step, FIG. 8A
Method: SK-HEP-1 cell culture medium: MEM, L-Gln (+) (Thermo Fisher Scientific) was prepared by adding 10% FBS (Biosera Co., Ltd.), 1% Non-essential amino acids (Fujifilm Wako Pure Chemical Industries, Ltd.), 1% Penicillin-Streptomycin solution (Fujifilm Wako Pure Chemical Industries, Ltd.), and 1 mM Sodium pyruvate (Fujifilm Wako Pure Chemical Industries, Ltd.). Dimethyl Sulfoxide (DMSO) (Wako Pure Chemical Industries, Ltd) was added to the respective media to obtain the designated levels and used. SK-HEP-1 cells (ATCC) were diluted with SK-HEP-1 cell culture medium so that they were 2.0×10^6 cells/mL or less, seeded under 6.07×10^5 cells/cm^2 on culture plates that had been coated with retronectin (Takara Bio Co., Ltd.) and a retrovirus into which a CAR gene had been introduced, and cultured for 4 days to introduce the CAR gene into SK-HEP-1 cells. CAR-T cells were produced as described above. SK-Hep-1 cell expressing CAR were produced as discussed above. 0.1% DMSO was added in the transduction_step during its production. After production, the rate of introduction of the CAR-gene was measured by flow cytometry.

T cells [2] = experiment: Immune phenotype of T cells by flow cytometry (naive and stem cell memory T cells, CAR-T production)
Method: as §1

[3] = Example 1, armored, activation step, 0.0037%, 0.011%, 0.033%, 0.1% DMSO vs no DMSO
[4] = Example 1, armored, activation step, 0.011%, 0.033%, 0.1% DMSO vs no DMSO
[5] = Example 3, armored, transduction step, 0.011%, 0.033%, 0.1%, 0.3% DMSO vs no DMSO
[6] = Example 6, unarmored, ex vivo expansion step, 0.3% DMSO vs no DMSO
[7] = Example 7, unarmored, ex vivo expansion step, 0.6-2.7% DMSO vs no DMSO

With `C[S+](C)[O-]` [DMSO, dimethyl sulfoxide] the mCherry transduction efficiency (NK92 cells; Example 9, NK92 cells, 0.03% and 0.1% DMSO in pre-culture step 2 days before transduction, FIG. 9B) was “significantly improves”, the “transduction efficiency in NK92 cells (mCherry positive cells)” value (NK92 cells; FIG. 9B legend, 0.01%-0.1% DMSO added in preculture step before transduction) was “improved” and the CAR-positive rate (T cells [1]; Example 1, CAR-T expressing IL-7 and CCL19 (armored), 0.033%, 0.1% DMSO in activation step (heading, FIG. 1; text says transduction step), vs no DMSO group) was “significantly increased”. The CAR-positive rate (T cells [1]; Example 2, CAR-T (unarmored), 0.033%, 0.1%, 0.3% DMSO in activation step (heading, FIG. 2; text says transduction step), vs no DMSO group) was “significantly increased”, the CAR-positive rate (T cells [1]; Example 3, armored (IL-7, CCL19), gene transduction step, 0.033%, 0.1% DMSO vs no DMSO group) was “significantly increased” and the CAR-positive rate (T cells [1]; Example 4, unarmored, gene transduction step, 0.033% DMSO vs no DMSO group) was “increased”. The “CAR transduction efficiency (CAR-T)” value (T cells [1]; Example 8, 0.1% DMSO in transduction step, FIG. 8B) was “significantly improves”, the “CAR gene transduction in SK-Hep-1” value (SK-HEP-1 cells) was “suppresses” and the “CD8 positive naive T cells” value (T cells [2]; [3]) was “significantly increased”. For the same molecule, the “CD8 positive stem cell memory T cells” value (T cells [2]; [3]) was “significantly increased”, the “CD4 positive naive T cells” value (T cells [2]; [4]) was “significantly increased” and the “CD4 positive stem cell memory T cells” value (T cells [2]; [4]) was “significantly increased”. The “CD4 positive stem cell memory T cells” value (T cells [2]; Example 2, unarmored, activation step, 0.0037%, 0.011%, 0.033%, 0.1%, 0.3% DMSO vs no DMSO) was “significantly increased”, the “CD8 positive stem cell memory T cells” value (T cells [2]; Example 2, unarmored, activation step, 0.1% and 0.3% DMSO vs no DMSO) was “significantly increased” and the “CD8 positive stem cell memory T cells” value (T cells [2]; Example 3, armored, transduction step, 0.0037%, 0.011%, 0.033%, 0.1% DMSO vs no DMSO) was “increased”. The “CD8 positive naive T cells” value (T cells [2]; Example 3, armored, transduction step, 0.011% and 0.033% DMSO vs no DMSO) was “increased”, the “CD4 positive naive T cells” value (T cells [2]; [5]) was “significantly increased” and the “CD4 positive stem cell memory T cells” value (T cells [2]; [5]) was “significantly increased”. For the same molecule, the “CD8 positive stem cell memory T cells” value (T cells [2]; Example 4, unarmored, transduction step, 0.0037%, 0.011%, 0.033%, 0.01% and 0.3% DMSO vs no DMSO) was “increased”, the “CD4 positive naive T cells” value (T cells [2]; Example 4, unarmored, transduction step, 0.011% and 0.033% DMSO vs no DMSO) was “increased” and the “CD8 positive stem cell memory T cells” value (T cells [2]; Example 5, armored, ex vivo expansion step, 0.3% DMSO vs no DMSO) was “significantly increased”. The “CD4 positive naive T cells” value (T cells [2]; [6]) was “increased”, the “CD4 positive stem cell memory T cells” value (T cells [2]; [6]) was “increased” and the “CD4 positive naive T cells” value (T cells [2]; [7]) was “increased”. For the same molecule, the “CD4 positive stem cell memory T cells” value (T cells [2]; [7]) was “increased”, the “CD8 positive naive T cells” value (T cells [2]; [7]) was “increased” and the “CD8 positive stem cell memory T cells” value (T cells [2]; [7]) was “increased”.
